Assay results from PubChem BioAssay (NCI).
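Five concentrations, 48 hours, 96-well plates. At the TGI there is no net growth.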

Experiments:
Experiment in all cases: inhibition of tumour cell growth, NCI panel, 48 h
OVCAR-4 ovarian = test system: OVCAR-4 ovarian
MCF7 breast = test system: MCF7 breast
HOP-62 NSCLC = test system: HOP-62 NSCLC
CAKI-1 renal = test system: CAKI-1 renal
HL-60(TB) leukemia = test system: HL-60(TB) leukemia
MOLT-4 leukemia = test system: MOLT-4 leukemia
SN12C renal = test system: SN12C renal
RXF 393 renal = test system: RXF 393 renal
A498 renal = test system: A498 renal
M14 melanoma = test system: M14 melanoma

| Structure (SMILES) | TGI (OVCAR-4 ovarian) [µM] | TGI (MCF7 breast) [µM] | TGI (HOP-62 NSCLC) [µM] | TGI (CAKI-1 renal) [µM] | TGI (HL-60(TB) leukemia) [µM] | TGI (MOLT-4 leukemia) [µM] | TGI (SN12C renal) [µM] | TGI (RXF 393 renal) [µM] | TGI (A498 renal) [µM] | TGI (M14 melanoma) [µM] |
| --- | --- | --- | --- | --- | --- | --- | --- | --- | --- | --- |
| COc1cc(/C=C/C(=N\NS(=O)(=O)c2ccc(C)cc2)c2sc(NNC(C)=O)nc2C)ccc1O | > 100 | > 100 | > 100 | > 100 | > 100 | > 100 | > 100 | > 100 | > 100 | > 100 |
| O=C1OCC(O)=C1C(c1ccc(Cl)cc1)c1cc2c(cc1O)OCO2 (configuration not stated) | > 100 | > 100 | > 100 | > 100 | > 100 | > 100 | > 100 | > 100 | > 100 | > 100 |
| CC(C)c1ccc(/C=C2/C=C(c3ccc4ccccc4c3)OC2=O)cc1 | > 100 | > 100 | > 100 | > 100 | 39.8 | 56.8 | > 100 | > 100 | > 100 | > 100 |
| O=S1(=O)NC(=NCc2c[nH]c3ccccc23)N(c2ccccc2)c2ccncc21 | > 100 | > 100 | > 100 | > 100 | > 100 | > 100 | > 100 | > 100 | > 100 | > 100 |
| O=C(Nc1ccc(C2=NCCN2)cc1)c1cncc(C(=O)Nc2ccc(C3=NCCN3)cc2)c1 | > 100 | > 100 | > 100 | > 100 | > 100 | > 100 | > 100 | > 100 | > 100 |  |
| Cc1ccccc1-n1c(=O)c2ncn(CCCl)c2n(-c2ccccc2C)c1=S | > 100 | > 100 | > 100 | > 100 | > 100 | > 100 | > 100 | > 100 | > 100 | > 100 |
| COc1c(C)c(C/C=C(\C)CCCCO[Si](c2ccccc2)(c2ccccc2)C(C)(C)C)c(OC)c(OC)c1OC | > 46.4 | > 46.4 | > 46.4 | 48.1 | > 100 | > 46.4 | > 46.3 | > 100 | > 100 | > 46.4 |
| CC(=O)O[C@H]1C(=O)[C@]2(C)[C@@H](OC(=O)OCCC(O)CO)C[C@H]3OC[C@@]3(OC(C)=O)[C@H]2[C@H](OC(=O)c2ccccc2)[C@]2(O)C[C@H](OC(=O)[C@H](O)[C@@H](NC(=O)c3ccccc3)c3ccccc3)C(C)=C1C2(C)C (some centres not stated) | > 94.3 | > 35 | 21.6 | > 42.3 | < 0.0106 | 12.7 | 19.8 | 17.9 | 21.6 | 7.16 |
| CC(C)CC(=O)OC[n+]1ccc(-c2c(COC(=O)NC(C)C)c(COC(=O)NC(C)C)c3n2CCC3)cc1 | > 100 | > 100 | > 100 | > 100 | > 100 | > 100 | > 100 | > 100 | > 100 | > 100 |
| COc1ccc(C(OCC2OC(n3cc(C)c(=O)[nH]c3=O)CC2n2cc(Cn3cc(I)c(=O)[nH]c3=O)nn2)(c2ccccc2)c2ccccc2)cc1 (configuration not stated) | > 100 | > 100 | > 100 | > 100 | 5.55 | > 100 | > 100 | > 100 | > 100 | > 100 |
| O=C1/C(=C/c2ccc(O)cc2)CC/C1=C\c1ccc(O)cc1 | > 100 | > 100 | > 100 | > 100 | 34.5 | > 52.8 | > 100 | > 100 | > 100 | > 100 |
| Cc1cc(N(CCC#N)CCC#N)ccc1/C(N=Nc1ccc(Cl)cc1)=N\NC(=O)c1ccccc1 | > 100 | > 100 | > 100 | > 100 | > 100 | > 100 | > 100 | > 100 | 58.5 | > 100 |
| O=C1CCC23CC(C=CC=C12)n1c(=O)n(-c2ccccc2)c(=O)n13 (configuration not stated) | > 100 | 32.3 | > 100 | > 83.4 | > 80.5 | > 100 | > 100 | > 100 | > 100 |  |
| N#CC1=C(N)N(c2ccccc2)C(c2ccco2)C1(C#N)C#N (configuration not stated) | 49 | 43.9 | 54.3 | > 100 | 53.4 | 71 | > 100 | 37.1 | 49.1 | 43.4 |
| Cc1ccc(SCC(CSCCO)OCn2cnc3c2NC(N)=NC32OCCO2)cc1 (configuration not stated) | > 100 | > 100 | > 100 | > 100 | > 100 | > 100 |  | > 100 | > 100 | > 100 |
| Cc1ccsc1/C=N/Nc1ncccn1 | > 100 | > 100 | > 100 | > 100 | > 100 | > 100 | > 100 | > 100 | > 100 | > 100 |
